Our source for the IC50 and melting point values is US6872721B2, “Derivatives of 2,3,6,7,12,12a-hexahydropyrazino-[1′,2′:1,6]pyrido[3,4b]-indole-1,4-dione” (Lilly ICOS LLC, priority 2000, dated 2005).

One series has as its target human recombinant-PDE5 (Homo sapiens, UniProt O76074). The series is described as follows: Inhibitory effect on cGMP-PDE (PDE5 IC50, one-step assay). The settings on record: in vitro, 0.15 μM 8-[H3]-cGMP, 30 min incubation. The format is biochemical. The method, then: The compounds of structural formula (I) were tested for an ability to inhibit PDE5. The ability of a compound to inhibit PDE5 activity is related to the IC50 value for the compound, i.e., the concentration of inhibitor required for 50% inhibition of enzyme activity. The IC50 value for compounds of structural formula (I) were determined using recombinant human PDE5.
cGMP-PDE activity of compounds of the present invention was measured using a one-step assay adapted from Wells et al., Biochim. Biophys. Acta, 384, 430 (1975). The reaction medium contained 50 mM Tris-HCl, pH 7.5, 5 mM magnesium acetate, 250 μg/ml 5′-Nucleotidase, 1 mM EGTA, and 0.15 μM 8-[H^3]-cGMP. Unless otherwise indicated, the enzyme used was a human recombinant-PDE5 (ICOS Corp., Bothell, Wash.).
Compounds of the invention were dissolved in DMSO finally present at 2% in the assay.

For the compound `CN1CC(=O)N2[C@H](c3ccc4c(c3)OCO4)c3[nH]c4ccc(O)cc4c3C[C@@H]2C1=O` (racemic) [Example 1, (+/−, cis)-6-Benzo[1,3]dioxol-5-yl-10-hydroxy-2-methyl-2,3,6,7,12,12a-hexahydropyrazino[1′,2′:1,6)pyrido[3,4-b]indole-1,4-dione], the melting point (commonly the temperature of the solid-liquid transition) is 322 to 328 °C. For the same compound, on human recombinant-PDE5, the IC50 (usually the concentration that inhibits the measured activity by half) came out at 48.1 nM.

`COc1ccc2[nH]c3c(c2c1)C[C@@H]1C(=O)N(C)CC(=O)N1[C@@H]3c1ccc2c(c1)OCO2` (racemic) [Example 2, (trans)-6-(1,3-Benzodioxol-5-yl)-10-methoxy-2-methyl-2,3,6,7,12,12a-hexahydropyrazino[1′,2′:1,6]pyrido[3,4-b]indole-1,4-dione] displayed a melting point of 259 to 261 °C. On human recombinant-PDE5, the IC50 is 402 nM.

As to `CN1CC(=O)N2[C@H](c3ccc4c(c3)OCO4)c3[nH]c4cc(-c5ccccc5)ccc4c3C[C@@H]2C1=O` (racemic) [Example 4, (+−, cis)-6-Benzo[1,3]dioxol-5-yl-2-methyl-9-phenyl-2,3,6,7,12,12a-hexahydropyrazino[1′,2′:1,6]pyrido[3,4-b]indole-1,4-dione], the melting point was in the range of 198 to 208 °C. At human recombinant-PDE5, the IC50 came to 6 nM.

With `COC(=O)c1ccc2c3c([nH]c2c1)[C@@H](c1ccc2c(c1)OCO2)N1C(=O)CN(C)C(=O)[C@H]1C3` (racemic) [Example 5, (+−, cis)-6-Benzo[1,3]dioxol-5-yl-2-methyl-1,4-dioxo-1,2,3,6,7,12,12a-octahydropyrazino[1′,2′:1,6]pyrido[3,4-b]indole-9-carboxylic acid methyl ester], the melting point lay in the range of 294 to 295 °C. On human recombinant-PDE5, the IC50 worked out at 288 nM.

`CN1CC(=O)N2[C@H](c3ccc4c(c3)OCO4)c3[nH]c4cc(C(=O)O)ccc4c3C[C@H]2C1=O` (racemic) [Example 6, (+−,trans)-6-Benzo[1,3]dioxol-5-yl-2-methyl-1,4-dioxo-1,2,3,4,6,7,12,12a-octahydropyrazino[1′,2′:1,6]pyrido[3,4-b]indole-9-carobxylic acid] gave a melting point of 246 to 252 °C. The concentration for half-maximal inhibition (IC50) at human recombinant-PDE5 amounted to 151 nM.

The compound `CN1CC(=O)N2[C@H](c3ccc4c(c3)OCO4)c3[nH]c4cc(C#N)ccc4c3C[C@@H]2C1=O` (racemic) [Example 7, (+−, cis)-6-Benzo[1,3]dioxol-5-yl-2-methyl-1,4-dioxo-1,2,3,4,6,7,12,12a-octahydropyrazino[1′,2′:1,6]pyrido[3,4-b]indole-9-carbonitrile] returned a melting point of 329 to 331 °C. For the same compound, the IC50 at human recombinant-PDE5 came to 7 nM.

The compound `CN1CC(=O)N2[C@H](c3ccc4c(c3)OCO4)c3[nH]c4c(OCc5ccccc5)cccc4c3C[C@@H]2C1=O` (racemic) [Example 8, (+−, cis)-6-Benzo[1,3]dioxol-5-yl-8-benzyloxy-2-methyl-2,3,6,7,12,12a-hexahydropyrazino[1′2′:1,6]pyrido[3,4-b]indole-1,4-dione] came in with a melting point of 150 to 161 °C. For the same compound, the IC50 on human recombinant-PDE5 was determined as 37 nM.

For `COc1ccc2c3c([nH]c2c1)[C@@H](c1ccc2c(c1)OCO2)N1C(=O)CN(C)C(=O)[C@H]1C3` [Example 3, (6R,12aR)-6-Benzo[1,3]dioxol-5-yl-9-methoxy-2-methyl-2,3,6,7,12,12a-hexahydropyrazino-[1′,2′:1,6]pyrido[3,4-b]indole-1,4-dione], the melting point was in the range of 288 to 293 °C. Further, the IC50 at human recombinant-PDE5 was 1.2 nM.
